Source: patent US8455440B2, “Combination anticoagulant therapy with a compound that acts as a factor Xa inhibitor” (Millennium Pharmaceuticals, Inc., priority 2007, dated 2013)

What was measured:
thrombin generation = experiment: Thrombin generation inhibition assay; assay type: biochemical, human
Procedure: After 10 min, the reaction was stopped by addition of EGTA. A chromogenic peptide substrate (Spectrozyme TH, American Diagnostica) specific for thrombin was added to measure the activity of thrombin generated during the tissue factor treatment period. After allowing the substrate cleavage reaction to proceed for 2 min, the samples were quenched with glacial acetic acid. The plasma samples were analyzed in triplicate in a 96-well plate format. […] The control samples were used to establish plate acceptance criteria. Absorbance of each sample well was measured at 405 nm.
Thrombin generation (% Inhibition) was calculated from absorbance at 405 nm (A405) by the following equation: %Inhibition=(1−A405/Baseline)×100.
Since thrombin generation inhibition values were reported as a percentage there is no lower limit of quantitation in this assay.

[1] = tested on: ferric chloride induced thrombosis in rat carotid artery; experiment: Ferric chloride induced thrombosis in rat carotid artery; assay type: in vivo; settings: for % Did not occlude (inhibition of rat thrombosis) / Number of animals without occlusion: intravenous infusion; for Number of animals without occlusion: 10 animals; for time to occlusion: animals that had vessel occlusion
[2] = tested on: venous thromboembolism (VTE); experiment: Prospective randomized trial for prevention of venous thromboembolic events after total knee replacement; settings: for VTE %: 10-14 days
Source text: Safety endpoints included the incidence of major and clinically significant nonmajor bleeds through the day after venography. All efficacy and bleeding endpoints were adjudicated by a blinded, independent central adjudication committee.

## COc1ccc(NC(=O)c2ccc(C(=N)N(C)C)cc2)c(C(=O)Nc2ccc(Cl)cn2)c1 [Compound A, [2-({4-[(dimethylamino)iminomethyl]phenyl}carbonylamino)-5-methoxyphenyl]-N-(5-chloro(2-pyridyl))carboxamide]
Thrombin generation; plasma of healthy volunteers, single and multiple ascending doses (FIG. 1, FIG. 2)
  correlation between Compound A plasma concentration and inhibition of thrombin generation: good correlation
Thrombin generation; total knee replacement patients, 15 mg or 40 mg oral twice a day
  effect on inhibition of thrombin generation: dose- and concentration-dependent effect
[1]; 0.03 μM Compound A
  % Did not occlude (inhibition of rat thrombosis): 30%
  Number of animals without occlusion: 3
  time to occlusion: 27.07
[1]; 0.1 μM Compound A
  % Did not occlude (inhibition of rat thrombosis): 60%
  Number of animals without occlusion: 6
  time to occlusion: 52.66
[1]; 0.3 μM Compound A
  % Did not occlude (inhibition of rat thrombosis): 90%
  Number of animals without occlusion: 9
  time to occlusion: 35.78
[1]; Compound A 0.03 μM iv infusion, aspirin 3 mg/kg iv bolus, or both
  % DNO (inhibition of rat thrombosis): 30%
[1]; average for animals that occluded, Compound A 0.03 μM, aspirin 3 mg/kg, or both
  TTO (Time to occlusion): 27.07 ± 7.36 min
[1]; number of 10 animals, Compound A 0.03 μM iv infusion, aspirin 3 mg/kg iv bolus, or both
  DNO (did not occlude): 3
[2]; Compound A 15 mg bid
  Clinical significant nonmajor bleeds %: 0%
  Major Bleeds %: 0%
[2]; Compound A 15 mg bid oral, n = 69
  VTE %: 20%
[2]; Compound A 40 mg bid
  Clinical significant nonmajor bleeds %: 2.4%
  Major Bleeds %: 0%
[2]; Compound A 40 mg bid oral, n = 65
  VTE %: 15%
